Results from PMC7413254 (Nature Communications, 2020).

The compounds below were run on PfCRT (assay: Influx of VF-6 via PfCRT into the oocyte, solutes tested as potential co-substrates). Settings: X marks the solute.
Type: cell-based, Plasmodium falciparum
Design: key: X: Compounds that have been tested as potential co-substrates but are not required for influx of VF-6 via PfCRT into the oocyte

SMILES	Compounds that have been tested as potential co-substrates but are not required for influx of VF-6 via PfCRT into the oocyte
N[C@@H](Cc1ccc(O)cc1)C(=O)O [L-tyrosine]	X
CSCC[C@H](N)C(=O)O [L-methionine]	X
N[C@@H](Cc1c[nH]c2ccccc12)C(=O)O [L-tryptophan]	X
C[C@@H](O)[C@H](N)C(=O)O [L-threonine]	X
